Data: US9845330B2, “6-nitro-2,3-dihydroimidazo[2,1-b]oxazoles and a process for the preparation thereof” (priority 2013, dated 2017)
≈ marks a conversion by molar mass, not a printed value. Like-named read-outs stand apart in the source and are kept apart here.

How the values were obtained:
[1] = system: macrophage J774 cells line; test: Cytotoxicity assay (MTT) in macrophage J774 cells; format: cell-based; details: J774 cells, 24 hrs, MTT
Method: The study was carried out using macrophage J774 cells line (ATCC-USA). Cells were grown in Rosewell Park Memorial Institute Medium (RPMI) containing 10% fetal calf serum (FCS) and supplemented with 75 mg/liter penicillin, 100 mg/liter streptomycin, 110 mg/liter Sodium pyruvate, 2.38 gm/liter HEPES, 0.05 mM 2 β-mercaptoethanol, and 2 gm/liter NaHCO3, in a humidified atmosphere in 5% CO2 at 37° C., and were sub-cultured at 1:4 ratio once a week.
Cells were plated at a density of 3×10^4 cells/cm^2 and maintained in culture medium for 12 hours. Cells were seeded onto 96-well flat bottom plates and FCS was reduced to 5% for the experiment. Stock solutions of compounds IA1 to IIC10 were prepared fresh to avoid oxidation. Cells were incubated with the compounds (40 μg/ml) for 24 hrs.
After the completion of incubation, the medium was removed and cell viability was evaluated by assaying for the ability of functional mitochondria to catalyze the reduction of 3-(4,5-dimethylthiazol-2-yl)-2,5-diphenyltetrazolium bromide (MTT) to form formazan salt by mitochondrial dehydrogenases, and determined by Elisa reader at 450 nm (Multiskan Spectrum; Thermo Electron Corporation, USA). Percentage cytotoxicity was calculated with respect to the untreated cells.

[2] = system: M. tuberculosis H37Rv (ATCC 27294); test: MIC by broth dilution method, M. tuberculosis H37Rv; format: cell-based; details: Mycobacterium tuberculosis, 504 h
[3] = broth dilution, 3 weeks, read-out: MIC M. tb H37Rv
[4] = text summary: sensitive H37Rv as well as MDR and XDR strains of M. tuberculosis, read-out: MIC value

SMILES	Cytotoxicity [1] [µg/mL]	MIC [2, 3] [µg/mL]	MIC [2, 4] [µg/mL]
C[C@]1(COc2ccc(-n3cc(-c4ccccc4F)nn3)cc2)Cn2cc([N+](=O)[O-])nc2O1 [IA4, (R)-2-{4-[4-(2-fluorophenyl)-1H-1,2,3-triazol-1-yl]phenoxymethyl}-2,3-dihydro-2-methyl-6-nitroimidazo[2,1-b]oxazole]	>40	1 (≈ 2.29 µM)	
C[C@]1(COc2ccc(-n3cc(-c4ccc(F)cc4F)nn3)cc2)Cn2cc([N+](=O)[O-])nc2O1 [IA7, (R)-2-{4-[4-(2,4-difluorophenyl)-1H-1,2,3-triazol-1-yl]phenoxymethyl}-2,3-dihydro-2-methyl-6-nitroimidazo[2,1-b]oxazole]	>40	2 (≈ 4.4 µM)	
Cc1ccc(-c2cn(-c3ccc(OC[C@@]4(C)Cn5cc([N+](=O)[O-])nc5O4)cc3)nn2)cc1 [IA8, (R)-2-{4-[4-(4-methylphenyl)-1H-1,2,3-triazol-1-yl]phenoxymethyl}-2,3-dihydro-2-methyl-6-nitroimidazo[2,1-b]oxazole]	>40	1 (≈ 2.31 µM)	
CC(C)c1ccc(-c2cn(-c3ccc(OC[C@@]4(C)Cn5cc([N+](=O)[O-])nc5O4)cc3)nn2)cc1 [IA9, (R)-2-{4-[4-(4-isopropylphenyl)-1H-1,2,3-triazol-1-yl]phenoxymethyl}-2,3-dihydro-2-methyl-6-nitroimidazo[2,1-b]oxazole]	>40	1 (≈ 2.17 µM)	
C[C@]1(COc2ccc(-n3cc(-c4cccc(F)c4)nn3)cc2)Cn2cc([N+](=O)[O-])nc2O1 [IA10, (R)-2-{4-[4-(3-fluorophenyl)-1H-1,2,3-triazol-1-yl]phenoxymethyl}-2,3-dihydro-2-methyl-6-nitroimidazo[2,1-b]oxazole]	>40	2 (≈ 4.58 µM)	
CCCCCCCc1cn(-c2ccc(OC[C@@]3(C)Cn4cc([N+](=O)[O-])nc4O3)cc2)nn1 [IA16, (R)-2-{4-[4-heptyl-1H-1,2,3-triazol-1-yl]phenoxymethyl}-2,3-dihydro-2-methyl-6-nitroimidazo[2,1-b]oxazole]	>40	4 (≈ 9.08 µM)	
C[C@]1(COc2cccc(-n3cc(-c4ccc(F)cc4)nn3)c2)Cn2cc([N+](=O)[O-])nc2O1 [IA17, (R)-2-{3-[4-(4-fluorophenyl)-1H-1,2,3-triazol-1-yl]phenoxymethyl}-2,3-dihydro-2-methyl-6-nitroimidazo[2,1-b]oxazole]	>40	2 (≈ 4.58 µM)	
C[C@]1(COc2cccc(-n3cc(-c4ccc(C(F)(F)F)cc4)nn3)c2)Cn2cc([N+](=O)[O-])nc2O1 [IA18, (R)-2-{3-[4-(4-trifluoromethylphenyl)-1H-1,2,3-triazol-1-yl]phenoxymethyl}-2,3-dihydro-2-methyl-6-nitroimidazo[2,1-b]oxazole]	>40	2 (≈ 4.11 µM)	
C[C@]1(COc2cccc(-n3cc(-c4ccc(OC(F)(F)F)cc4)nn3)c2)Cn2cc([N+](=O)[O-])nc2O1 [IA19, (R)-2-{3-[4-(4-trifluoromethoxyphenyl)-1H-1,2,3-triazol-1-yl]phenoxymethyl}-2,3-dihydro-2-methyl-6-nitroimidazo[2,1-b]oxazole]	>40	4 (≈ 7.96 µM)	
C[C@]1(COc2cccc(-n3cc(-c4ccc(F)cc4F)nn3)c2)Cn2cc([N+](=O)[O-])nc2O1 [IA20, (R)-2-{3-[4-(2,4-difluorophenyl)-1H-1,2,3-triazol-1-yl]phenoxymethyl}-2,3-dihydro-2-methyl-6-nitroimidazo[2,1-b]oxazole]	>40	4 (≈ 8.8 µM)	
C[C@]1(COc2ccccc2-n2cc(-c3ccc(F)cc3)nn2)Cn2cc([N+](=O)[O-])nc2O1 [IA21, (R)-2-{2-[4-(4-fluorophenyl)-1H-1,2,3-triazol-1-yl]phenoxymethyl}-2,3-dihydro-2-methyl-6-nitroimidazo[2,1-b]oxazole]	>40	1 (≈ 2.29 µM)	
C[C@]1(COc2ccccc2-n2cc(-c3ccc(C(F)(F)F)cc3)nn2)Cn2cc([N+](=O)[O-])nc2O1 [IA22, (R)-2-{2-[4-(4-trifluoromethylphenyl)-1H-1,2,3-triazol-1-yl]phenoxymethyl}-2,3-dihydro-2-methyl-6-nitroimidazo[2,1-b]oxazole]	>40	4 (≈ 8.22 µM)	
C[C@]1(COc2ccccc2-n2cc(-c3ccc(OC(F)(F)F)cc3)nn2)Cn2cc([N+](=O)[O-])nc2O1 [IA23, (R)-2-{2-[4-(4-trifluoromethoxyphenyl)-1H-1,2,3-triazol-1-yl]phenoxymethyl}-2,3-dihydro-2-methyl-6-nitroimidazo[2,1-b]oxazole]	>40	4 (≈ 7.96 µM)	
C[C@]1(COc2cccc(-n3cc(COc4ccc(C(F)(F)F)cc4)nn3)c2)Cn2cc([N+](=O)[O-])nc2O1 [IA35]	>40	2 (≈ 3.87 µM)	
C[C@]1(COc2cccc(-n3cc(COc4ccccc4F)nn3)c2)Cn2cc([N+](=O)[O-])nc2O1 [IA36]	>40	2 (≈ 4.29 µM)	
Cc1ccc(OCc2cn(-c3cccc(OC[C@@]4(C)Cn5cc([N+](=O)[O-])nc5O4)c3)nn2)cc1 [IA37]	>40	4 (≈ 8.65 µM)	
CC(C)c1ccc(OCc2cn(-c3cccc(OC[C@@]4(C)Cn5cc([N+](=O)[O-])nc5O4)c3)nn2)cc1 [IA38]	>40	4 (≈ 8.15 µM)	
C[C@]1(COc2ccc(-n3nnnc3-c3ccccc3)cc2)Cn2cc([N+](=O)[O-])nc2O1 [IB1, (R)-2-{4-[5-phenyl-1H-tetrazol-1-yl]phenoxymethyl}-2,3-dihydro-2-methyl-6-nitroimidazo[2,1-b]oxazole]	>40	2 (≈ 4.77 µM)	1 to 4 (≈ 2.38 to 9.54 µM)
C[C@]1(COc2ccc(-n3nnnc3-c3ccc(OC(F)(F)F)cc3)cc2)Cn2cc([N+](=O)[O-])nc2O1 [IB2, (R)-2-{4-[5-(4-trifluoromethoxyphenyl)-1H-tetrazol-1-yl]phenoxymethyl}-2,3-dihydro-2-methyl-6-nitroimidazo[2,1-b]oxazole]	>40	2 (≈ 3.97 µM)	1 to 4 (≈ 1.99 to 7.95 µM)
Cc1ccc(-c2nnnn2-c2ccc(OC[C@@]3(C)Cn4cc([N+](=O)[O-])nc4O3)cc2)cc1 [IB3, (R)-2-{4-[5-(4-methylphenyl)-1H-tetrazol-1-yl]phenoxymethyl}-2,3-dihydro-2-methyl-6-nitroimidazo[2,1-b]oxazole]	>40	4 (≈ 9.23 µM)	1 to 4 (≈ 2.31 to 9.23 µM)
C[C@]1(COc2ccc(-n3nnnc3-c3ccc(F)cc3)cc2)Cn2cc([N+](=O)[O-])nc2O1 [IB4, (R)-2-{4-[5-(4-fluorophenyl)-1H-tetrazol-1-yl]phenoxymethyl}-2,3-dihydro-2-methyl-6-nitroimidazo[2,1-b]oxazole]	>40	4 (≈ 9.15 µM)	1 to 4 (≈ 2.29 to 9.15 µM)
C[C@]1(COc2ccc(-n3nnnc3-c3ccc(C(F)(F)F)cc3)cc2)Cn2cc([N+](=O)[O-])nc2O1 [IB5, (R)-2-{4-[5-(4-trifluoromethylphenyl)-1H-tetrazol-1-yl]phenoxymethyl}-2,3-dihydro-2-methyl-6-nitroimidazo[2,1-b]oxazole]	>40	1 (≈ 2.05 µM)	1 to 4 (≈ 2.05 to 8.21 µM)
CCc1ccc(-c2nnnn2-c2ccc(OC[C@@]3(C)Cn4cc([N+](=O)[O-])nc4O3)cc2)cc1 [IB6, (R)-2-{4-[5-(4-ethylphenyl)-1H-tetrazol-1-yl]phenoxymethyl}-2,3-dihydro-2-methyl-6-nitroimidazo[2,1-b]oxazole]	>40	2 (≈ 4.47 µM)	1 to 4 (≈ 2.23 to 8.94 µM)
C[C@]1(COc2ccc(-n3nnnc3Oc3ccc(F)cc3)cc2)Cn2cc([N+](=O)[O-])nc2O1 [IB7, (R)-2-{4-[5-(4-fluorophenoxy)-1H-tetrazol-1-yl]phenoxymethyl}-2,3-dihydro-2-methyl-6-nitroimidazo[2,1-b]oxazole]	>40	2 (≈ 4.41 µM)	1 to 4 (≈ 2.21 to 8.82 µM)
C[C@]1(COc2ccc(-n3nnnc3Oc3ccc(C(F)(F)F)cc3)cc2)Cn2cc([N+](=O)[O-])nc2O1 [IB8, (R)-2-{4-[5-(4-trifluoromethylphenoxy)-1H-tetrazol-1-yl]phenoxymethyl}-2,3-dihydro-2-methyl-6-nitroimidazo[2,1-b]oxazole]	>40	4 (≈ 7.95 µM)	1 to 4 (≈ 1.99 to 7.95 µM)
Cc1ccc(Oc2nnnn2-c2ccc(OC[C@@]3(C)Cn4cc([N+](=O)[O-])nc4O3)cc2)cc1 [IB9, (R)-2-{4-[5-(4-methylphenoxy)-1H-tetrazol-1-yl]phenoxymethyl}-2,3-dihydro-2-methyl-6-nitroimidazo[2,1-b]oxazole]	>40	4 (≈ 8.9 µM)	1 to 4 (≈ 2.23 to 8.9 µM)
C[C@]1(COc2ccc(-n3nnnc3Oc3ccc(OC(F)(F)F)cc3)cc2)Cn2cc([N+](=O)[O-])nc2O1 [IB10, (R)-2-{4-[5-(4-trifluoromethoxyphenoxy)-1H-tetrazol-1-yl]phenoxymethyl}-2,3-dihydro-2-methyl-6-nitroimidazo[2,1-b]oxazole]	>40	1 (≈ 1.93 µM)	1 to 4 (≈ 1.93 to 7.7 µM)
